Columns and labels:
Assay type in all cases: functional
COLO 205 = assay: Anticancer activity against human COLO 205 cells assessed as cell growth inhibition incubated for 48 hrs by SRB assay
SK-MEL-28 = assay: Anticancer activity against human SK-MEL-28 cells assessed as cell growth inhibition incubated for 48 hrs by SRB assay
NCI-H226 = assay: Anticancer activity against human NCI-H226 cells assessed as cell growth inhibition incubated for 48 hrs by SRB assay
SR = assay: Anticancer activity against human SR cells assessed as cell growth inhibition incubated for 48 hrs by SRB assay
U-251 = assay: Anticancer activity against human U-251 cells assessed as cell growth inhibition incubated for 48 hrs by SRB assay
HCC 2998 = assay: Anticancer activity against human HCC 2998 cells assessed as cell growth inhibition incubated for 48 hrs by SRB assay
CCRF-CEM = assay: Anticancer activity against human CCRF-CEM cells assessed as cell growth inhibition incubated for 48 hrs by SRB assay
SNB-75 = assay: Anticancer activity against human SNB-75 cells assessed as cell growth inhibition incubated for 48 hrs by SRB assay
NCI-H460 = assay: Anticancer activity against human NCI-H460 cells assessed as cell growth inhibition incubated for 48 hrs by SRB assay
TK-10 = assay: Anticancer activity against human TK-10 cells assessed as cell growth inhibition incubated for 48 hrs by SRB assay
A498 = assay: Anticancer activity against human A498 cells assessed as cell growth inhibition incubated for 48 hrs by SRB assay
ACHN = assay: Anticancer activity against human ACHN cells assessed as cell growth inhibition incubated for 48 hrs by SRB assay
SK-MEL-2 = assay: Anticancer activity against human SK-MEL-2 cells assessed as cell growth inhibition incubated for 48 hrs by SRB assay
MCF7 = assay: Anticancer activity against human MCF7 cells assessed as cell growth inhibition incubated for 48 hrs by SRB assay
SK-OV-3 = assay: Anticancer activity against human SK-OV-3 cells assessed as cell growth inhibition incubated for 48 hrs by SRB assay
PC-3 = assay: Anticancer activity against human PC-3 cells assessed as cell growth inhibition incubated for 48 hrs by SRB assay
MDA-MB-468 = assay: Anticancer activity against human MDA-MB-468 cells assessed as cell growth inhibition incubated for 48 hrs by SRB assay
UACC-257 = assay: Anticancer activity against human UACC-257 cells assessed as cell growth inhibition incubated for 48 hrs by SRB assay
SF-268 = assay: Anticancer activity against human SF-268 cells assessed as cell growth inhibition incubated for 48 hrs by SRB assay
Hs-578T = assay: Anticancer activity against human Hs-578T cells assessed as cell growth inhibition incubated for 48 hrs by SRB assay
T47D = assay: Anticancer activity against human T47D cells assessed as cell growth inhibition incubated for 48 hrs by SRB assay
HOP-62 = assay: Anticancer activity against human HOP-62 cells assessed as cell growth inhibition incubated for 48 hrs by SRB assay
SN12C = assay: Anticancer activity against human SN12C cells assessed as cell growth inhibition incubated for 48 hrs by SRB assay
786-0 = assay: Anticancer activity against human 786-0 cells assessed as cell growth inhibition incubated for 48 hrs by SRB assay
RPMI-8226 = assay: Anticancer activity against human RPMI-8226 cells assessed as cell growth inhibition incubated for 48 hrs by SRB assay
M14 = assay: Anticancer activity against human M14 cells assessed as cell growth inhibition incubated for 48 hrs by SRB assay
UACC-62 = assay: Anticancer activity against human UACC-62 cells assessed as cell growth inhibition incubated for 48 hrs by SRB assay
EKVX = assay: Anticancer activity against human EKVX cells assessed as cell growth inhibition incubated for 48 hrs by SRB assay
HOP-92 = assay: Anticancer activity against human HOP-92 cells assessed as cell growth inhibition incubated for 48 hrs by SRB assay
CAKI-1 = assay: Anticancer activity against human CAKI-1 cells assessed as cell growth inhibition incubated for 48 hrs by SRB assay
NCI-H322M = assay: Anticancer activity against human NCI-H322M cells assessed as cell growth inhibition incubated for 48 hrs by SRB assay
NCI/ADR-RES = assay: Anticancer activity against human NCI/ADR-RES cells assessed as cell growth inhibition incubated for 48 hrs by SRB assay
SK-MEL-5 = assay: Anticancer activity against human SK-MEL-5 cells assessed as cell growth inhibition incubated for 48 hrs by SRB assay
OVCAR-8 = assay: Anticancer activity against human OVCAR-8 cells assessed as cell growth inhibition incubated for 48 hrs by SRB assay
OVCAR-5 = assay: Anticancer activity against human OVCAR-5 cells assessed as cell growth inhibition incubated for 48 hrs by SRB assay
MDA-MB-435 = assay: Anticancer activity against human MDA-MB-435 cells assessed as cell growth inhibition incubated for 48 hrs by SRB assay
DU-145 = assay: Anticancer activity against human DU-145 cells assessed as cell growth inhibition incubated for 48 hrs by SRB assay
HL-60(TB) = assay: Anticancer activity against human HL-60(TB) cells assessed as cell growth inhibition incubated for 48 hrs by SRB assay
SW-620 = assay: Anticancer activity against human SW-620 cells assessed as cell growth inhibition incubated for 48 hrs by SRB assay
[1] = read-out: LC50 (the source's name)

**Q.** What does the source list for `Cc1nn(-c2ccccc2)cc1/C=N/Nc1nc(Nc2ccccc2)nc(Nc2ccc(S(N)(=O)=O)cc2)n1`?
**A.** GI50 (COLO 205): 2470 nM; CC50 (COLO 205; [1]): > 100000 nM; GI50 (SK-MEL-28): 1800 nM; CC50 (SK-MEL-28; [1]): 6640 nM; GI50 (NCI-H226): 1850 nM; CC50 (NCI-H226; [1]): > 100000 nM; GI50 (SR): 2450 nM; CC50 (SR; [1]): > 100000 nM; GI50 (U-251): 3650 nM; CC50 (U-251; [1]): > 100000 nM; GI50 (HCC 2998): 1880 nM; CC50 (HCC 2998; [1]): 7010 nM; GI50 (CCRF-CEM): 2090 nM; CC50 (CCRF-CEM; [1]): > 100000 nM; GI50 (SNB-75): 2690 nM; LC50 (concentration killing 50% of cells) (SNB-75): > 100000 nM; GI50 (NCI-H460): 2770 nM; CC50 (NCI-H460; [1]): > 100000 nM; GI50 (TK-10): 1480 nM; CC50 (TK-10; [1]): 8250 nM; GI50 (A498): 1710 nM; CC50 (A498; [1]): 6710 nM; GI50 (ACHN): 1900 nM; CC50 (ACHN; [1]): 6720 nM; GI50 (SK-MEL-2): 1690 nM; GI50 (MCF7): 1550 nM; LC50 (MCF7): 7590 nM; GI50 (SK-OV-3): 2930 nM; LC50 (SK-OV-3): > 100000 nM; GI50 (PC-3): 2220 nM; CC50 (PC-3; [1]): > 100000 nM; GI50 (MDA-MB-468): 1520 nM; CC50 (MDA-MB-468; [1]): 7030 nM; GI50 (UACC-257): 2500 nM; LC50 (UACC-257): > 100000 nM; GI50 (SF-268): 2930 nM; LC50 (concentration killing 50% of cells) (SF-268): > 100000 nM; GI50 (Hs-578T): 2770 nM; LC50 (concentration killing 50% of cells) (Hs-578T): > 100000 nM; GI50 (T47D): 2140 nM; LC50 (T47D): > 100000 nM; GI50 (HOP-62): 2830 nM; CC50 (HOP-62; [1]): > 100000 nM; GI50 (SN12C): 2940 nM; LC50 (SN12C): > 100000 nM; GI50 (786-0): 2130 nM; GI50 (RPMI-8226): 1660 nM; LC50 (concentration killing 50% of cells) (RPMI-8226): > 100000 nM; GI50 (M14): 2060 nM; GI50 (UACC-62): 1780 nM; LC50 (UACC-62): 7190 nM; GI50 (EKVX): 2000 nM; CC50 (EKVX; [1]): 35100 nM; GI50 (HOP-92): 2440 nM; CC50 (HOP-92; [1]): > 100000 nM; GI50 (CAKI-1): 2010 nM; GI50 (NCI-H322M): 2440 nM; CC50 (NCI-H322M; [1]): > 100000 nM; GI50 (NCI/ADR-RES): > 100000 nM; CC50 (NCI/ADR-RES; [1]): > 100000 nM; GI50 (SK-MEL-5): 1480 nM; LC50 (SK-MEL-5): 5300 nM; GI50 (OVCAR-8): 2050 nM; LC50 (OVCAR-8): > 100000 nM; GI50 (OVCAR-5): 2060 nM; CC50 (OVCAR-5; [1]): > 100000 nM; GI50 (MDA-MB-435): 1770 nM; LC50 (MDA-MB-435): 6780 nM; GI50 (DU-145): 3060 nM; LC50 (50% lethal concentration) (DU-145): > 100000 nM; GI50 (HL-60(TB)): 2240 nM; CC50 (HL-60(TB); [1]): > 100000 nM; GI50 (SW-620): 3380 nM; CC50 (SW-620; [1]): > 100000 nM
